From ChEMBL document CHEMBL5523684, “Development of a tetrahydroindazolone-based HDAC6 inhibitor with in-vivo anti-arthritic activity” (Bioorg Med Chem, 2024) come the findings set out here.

The source made the active and inactive calls. No cut-off for these calls is given here. Some results are limits rather than exact numbers.

Data set [1] in a line: AUClast in mouse at 50 mg/kg, po. Type of data set: ADME, organism-based. As to conditions: in vivo.
The subject of data set [2] is Rattus norvegicus. In words: Antiarthritic activity against adjuvant-induced arthritis Lewis rat model assessed as improvement in arthritis symptoms at 50 mg/kg, po measured after 8 days in presence of methotrexate. Type of data set: functional. As to conditions: time 8 day.
Data set [3] can be described thus: AUClast in monkey at 10 mg/kg, po. Type of data set: ADME, organism-based, Macaca mulatta. As to conditions: rhesus monkey, in vivo.
The subject of the next data set is THP-1. In words: Inhibition of TNF-alpha secretion in LPS-stimulated human THP-1 cells pretreated with compound for 24 hrs followed by LPS-induction and measured after 4 hrs by ELISA analysis. As to conditions: dose 0.3-10 µM. The format is functional, cell-based. (ELISA stands for enzyme-linked immunosorbent assay.)
Data set [4] in a line: Tmax in monkey at 10 mg/kg, po. Particulars: rhesus monkey, in vivo. The format is ADME, organism-based, Macaca mulatta.
The nature of data set [5]: AUC (0 to infinity) in mouse at 10 mg/kg, iv. The format is ADME, organism-based. As to conditions: in vivo.
Data set [6] has as its target T1, Protein deacetylase HDAC6 (Homo sapiens) (UniProt Q9UBN7).
T1 sequence (whole entry): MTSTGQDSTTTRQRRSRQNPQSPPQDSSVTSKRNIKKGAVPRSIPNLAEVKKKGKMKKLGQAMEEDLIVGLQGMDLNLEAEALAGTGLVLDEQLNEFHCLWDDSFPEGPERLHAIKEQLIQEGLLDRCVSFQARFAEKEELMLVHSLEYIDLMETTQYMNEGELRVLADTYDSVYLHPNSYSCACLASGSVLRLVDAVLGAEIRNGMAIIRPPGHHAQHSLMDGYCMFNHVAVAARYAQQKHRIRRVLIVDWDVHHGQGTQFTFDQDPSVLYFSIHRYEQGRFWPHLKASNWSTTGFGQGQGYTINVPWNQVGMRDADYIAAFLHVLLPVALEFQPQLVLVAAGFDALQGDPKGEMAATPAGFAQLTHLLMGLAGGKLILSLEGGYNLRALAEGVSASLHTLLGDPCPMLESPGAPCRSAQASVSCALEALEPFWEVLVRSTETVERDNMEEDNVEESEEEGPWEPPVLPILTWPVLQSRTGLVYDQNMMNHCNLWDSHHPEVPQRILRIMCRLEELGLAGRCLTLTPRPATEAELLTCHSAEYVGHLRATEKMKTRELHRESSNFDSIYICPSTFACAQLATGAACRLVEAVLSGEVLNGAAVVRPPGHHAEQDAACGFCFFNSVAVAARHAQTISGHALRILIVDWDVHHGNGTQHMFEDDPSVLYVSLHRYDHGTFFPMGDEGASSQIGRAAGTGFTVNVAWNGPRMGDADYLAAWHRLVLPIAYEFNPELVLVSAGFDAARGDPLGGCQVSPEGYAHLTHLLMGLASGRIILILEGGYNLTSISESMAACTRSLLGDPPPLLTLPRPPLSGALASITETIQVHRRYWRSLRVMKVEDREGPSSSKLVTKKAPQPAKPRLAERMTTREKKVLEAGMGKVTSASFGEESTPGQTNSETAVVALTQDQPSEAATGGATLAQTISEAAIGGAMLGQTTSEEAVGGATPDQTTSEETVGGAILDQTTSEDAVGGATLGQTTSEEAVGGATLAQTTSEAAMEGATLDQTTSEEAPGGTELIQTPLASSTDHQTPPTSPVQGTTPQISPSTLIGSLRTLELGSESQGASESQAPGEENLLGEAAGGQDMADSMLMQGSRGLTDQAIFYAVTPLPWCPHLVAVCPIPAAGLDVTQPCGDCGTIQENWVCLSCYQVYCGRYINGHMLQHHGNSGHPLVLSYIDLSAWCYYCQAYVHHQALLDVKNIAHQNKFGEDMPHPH
In words: Inhibition of HDAC6 in human HH cells assessed as induction of acetylated H4 accumulation upto 10 uM by Western blot analysis. Type of data set: cell-based. For orientation: A western blot detects proteins with antibodies after separation by electrophoresis.

The nature of data set [7]: Bioavailability in monkey at 0.5 mg/kg, iv. Type of data set: ADME, organism-based, Macaca mulatta. Particulars: rhesus monkey, in vivo.
A short description of data set [8]: Half life in dog at 0.5 mg/kg, iv. The format is ADME, organism-based, Canis lupus familiaris. Particulars: in vivo.
Data set [9] can be described thus: Clearance in dog at 0.5 mg/kg, iv. Particulars: in vivo. The format is ADME, organism-based, Canis lupus familiaris.
Data set [10] in a line: C0 in mouse at 10 mg/kg, iv. As to conditions: in vivo. The format is ADME, organism-based.
Data set [11] can be described thus: AUClast in monkey at 0.5 mg/kg, iv. Type of data set: ADME, organism-based, Macaca mulatta. Particulars: rhesus monkey, in vivo.
Data set [12] is described as follows: Cmax in monkey at 10 mg/kg, po. Particulars: rhesus monkey, in vivo. The format is ADME, organism-based, Macaca mulatta.
Data set [13] in a line: Half life in monkey at 0.5 mg/kg, iv. The format is ADME, organism-based, Macaca mulatta. As to conditions: rhesus monkey, in vivo.
The nature of data set [14]: AUC (0 to infinity) in monkey at 0.5 mg/kg, iv. Type of data set: ADME, organism-based, Macaca mulatta. As to conditions: rhesus monkey, in vivo.
Data set [15] has as its target T1, Protein deacetylase HDAC6 (Homo sapiens). In words: Inhibition of HDAC6 in human HH cells assessed as induction of acetylated tubulin accumulation at 0.3 uM by Western blot analysis. The format is cell-based.
Data set [16] can be described thus: Half life in mouse at 50 mg/kg, po. The format is ADME, organism-based. Particulars: in vivo.
A short description of data set [17]: AUClast in dog at 0.5 mg/kg, iv. The format is ADME, organism-based, Canis lupus familiaris. Particulars: in vivo.
In data set [18] the test system is Mus musculus. In words: Antiarthritic activity against collagen-induced arthritis DBA1J mouse model at 15 to 30 mg/kg, sc measured after 21 days. Type of data set: functional, organism-based. As to conditions: dose lower […], dose upper 30.0 mg/kg, time 21.0 day.
The nature of data set [19]: AUClast in dog at 5 mg/kg, po. The format is ADME, organism-based, Canis lupus familiaris. Particulars: in vivo.
Data set [20] can be described thus: Bioavailability in dog at 0.5 mg/kg, iv. Type of data set: ADME, organism-based, Canis lupus familiaris. As to conditions: in vivo.
The nature of data set [21]: C0 in dog at 0.5 mg/kg, iv. Particulars: in vivo. The format is ADME, organism-based, Canis lupus familiaris.
Data set [22] is described as follows: Half life in monkey at 10 mg/kg, po. The format is ADME, organism-based, Macaca mulatta. Particulars: rhesus monkey, in vivo.
A short description of data set [23]: Half life in dog at 5 mg/kg, po. The format is ADME, organism-based, Canis lupus familiaris. As to conditions: in vivo.
In data set [24] the test system is Rattus norvegicus. In words: Antiarthritic activity against adjuvant-induced arthritis Lewis rat model assessed as improvement in arthritis symptoms at 50 mg/kg, po measured after 8 days. Type of data set: functional. Particulars: time 8 day.
Data set [25] is described as follows: Tmax in mouse at 50 mg/kg, po. Type of data set: ADME, organism-based. As to conditions: in vivo.
Data set [26] in a line: AUC (0 to infinity) in monkey at 10 mg/kg, po. The format is ADME, organism-based, Macaca mulatta. As to conditions: rhesus monkey, in vivo.
Data set [27] in a line: AUC (0 to infinity) in dog at 0.5 mg/kg, iv. The format is ADME, organism-based, Canis lupus familiaris. As to conditions: in vivo.
Data set [28] is described as follows: Tmax in dog at 5 mg/kg, po. Type of data set: ADME, organism-based, Canis lupus familiaris. Particulars: in vivo.
A short description of data set [29]: AUClast in mouse at 10 mg/kg, iv. Particulars: in vivo. Type of data set: ADME, organism-based.
The test system of data set [30] is Mus musculus. In words: Antiarthritic activity against collagen-induced arthritis DBA1J mouse model assessed as improvement in arthritis symptoms at 30 mg/kg, sc measured after 21 days. Type of data set: functional. As to conditions: time 21 day.
Data set [31] is described as follows: Cmax in dog at 5 mg/kg, po. Type of data set: ADME, organism-based, Canis lupus familiaris. Particulars: in vivo.
Data set [32] deals with T1, Protein deacetylase HDAC6 (Homo sapiens). In words: Inhibition of HDAC6 in human HH cells assessed as induction of acetylated H3 accumulation upto 10 uM by Western blot analysis. The format is cell-based.
Data set [33] can be described thus: Clearance in monkey at 0.5 mg/kg, iv. Type of data set: ADME, organism-based, Macaca mulatta. Particulars: rhesus monkey, in vivo.
Data set [34] concerns the target T2, Protein deacetylase HDAC6 (Homo sapiens, UniProt Q9UBN7).
T2 sequence (Q9UBN7 whole entry): T1 sequence (whole entry)
In words: Inhibition of N-terminal GST-tagged human recombinant HDAC6 expressed in Spodoptera frugiperda incubated for 60 mins by fluorescence based analysis.

The target of a further data set is Histone deacetylase 4 (Homo sapiens, UniProt P56524). In words: Inhibition of human recombinant HDAC4 using Boc-Lys(tri-fluoroacetyl)-AMC as substrate by fluorescence based analysis.
Histone deacetylase 4, sequence (P56524 whole entry): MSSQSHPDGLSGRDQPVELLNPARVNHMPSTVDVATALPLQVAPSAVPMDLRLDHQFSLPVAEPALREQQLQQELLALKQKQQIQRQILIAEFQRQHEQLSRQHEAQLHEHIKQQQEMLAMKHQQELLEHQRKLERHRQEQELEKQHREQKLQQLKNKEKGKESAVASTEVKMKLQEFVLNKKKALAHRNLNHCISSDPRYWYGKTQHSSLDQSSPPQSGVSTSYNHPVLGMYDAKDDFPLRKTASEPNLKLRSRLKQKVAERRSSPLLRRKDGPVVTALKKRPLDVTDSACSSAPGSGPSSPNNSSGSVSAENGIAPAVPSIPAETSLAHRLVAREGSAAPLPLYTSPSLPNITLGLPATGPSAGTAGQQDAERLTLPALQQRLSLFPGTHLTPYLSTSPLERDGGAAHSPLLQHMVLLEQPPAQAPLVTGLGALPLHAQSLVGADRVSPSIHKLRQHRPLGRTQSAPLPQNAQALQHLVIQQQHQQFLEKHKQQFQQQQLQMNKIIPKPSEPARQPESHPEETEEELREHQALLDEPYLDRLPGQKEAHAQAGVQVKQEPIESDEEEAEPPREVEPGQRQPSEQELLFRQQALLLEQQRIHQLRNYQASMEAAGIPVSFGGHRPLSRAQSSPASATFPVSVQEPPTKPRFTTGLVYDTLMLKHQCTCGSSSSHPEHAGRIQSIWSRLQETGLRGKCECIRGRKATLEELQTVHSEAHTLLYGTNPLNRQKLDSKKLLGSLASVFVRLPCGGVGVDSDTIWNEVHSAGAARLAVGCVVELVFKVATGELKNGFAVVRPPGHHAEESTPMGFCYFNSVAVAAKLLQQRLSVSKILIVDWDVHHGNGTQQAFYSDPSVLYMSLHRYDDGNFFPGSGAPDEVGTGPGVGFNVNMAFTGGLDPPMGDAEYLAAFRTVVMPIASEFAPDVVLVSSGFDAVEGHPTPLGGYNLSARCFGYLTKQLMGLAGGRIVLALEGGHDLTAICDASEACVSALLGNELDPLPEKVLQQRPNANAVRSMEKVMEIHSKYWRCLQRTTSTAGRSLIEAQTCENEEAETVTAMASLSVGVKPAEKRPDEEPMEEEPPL
In another data set the target is Histone deacetylase 9 (Homo sapiens, UniProt Q9UKV0). In words: Inhibition of human recombinant HDAC9 using Boc-Lys(tri-fluoroacetyl)-AMC as substrate by fluorescence based analysis.
Histone deacetylase 9, sequence (Q9UKV0 whole entry): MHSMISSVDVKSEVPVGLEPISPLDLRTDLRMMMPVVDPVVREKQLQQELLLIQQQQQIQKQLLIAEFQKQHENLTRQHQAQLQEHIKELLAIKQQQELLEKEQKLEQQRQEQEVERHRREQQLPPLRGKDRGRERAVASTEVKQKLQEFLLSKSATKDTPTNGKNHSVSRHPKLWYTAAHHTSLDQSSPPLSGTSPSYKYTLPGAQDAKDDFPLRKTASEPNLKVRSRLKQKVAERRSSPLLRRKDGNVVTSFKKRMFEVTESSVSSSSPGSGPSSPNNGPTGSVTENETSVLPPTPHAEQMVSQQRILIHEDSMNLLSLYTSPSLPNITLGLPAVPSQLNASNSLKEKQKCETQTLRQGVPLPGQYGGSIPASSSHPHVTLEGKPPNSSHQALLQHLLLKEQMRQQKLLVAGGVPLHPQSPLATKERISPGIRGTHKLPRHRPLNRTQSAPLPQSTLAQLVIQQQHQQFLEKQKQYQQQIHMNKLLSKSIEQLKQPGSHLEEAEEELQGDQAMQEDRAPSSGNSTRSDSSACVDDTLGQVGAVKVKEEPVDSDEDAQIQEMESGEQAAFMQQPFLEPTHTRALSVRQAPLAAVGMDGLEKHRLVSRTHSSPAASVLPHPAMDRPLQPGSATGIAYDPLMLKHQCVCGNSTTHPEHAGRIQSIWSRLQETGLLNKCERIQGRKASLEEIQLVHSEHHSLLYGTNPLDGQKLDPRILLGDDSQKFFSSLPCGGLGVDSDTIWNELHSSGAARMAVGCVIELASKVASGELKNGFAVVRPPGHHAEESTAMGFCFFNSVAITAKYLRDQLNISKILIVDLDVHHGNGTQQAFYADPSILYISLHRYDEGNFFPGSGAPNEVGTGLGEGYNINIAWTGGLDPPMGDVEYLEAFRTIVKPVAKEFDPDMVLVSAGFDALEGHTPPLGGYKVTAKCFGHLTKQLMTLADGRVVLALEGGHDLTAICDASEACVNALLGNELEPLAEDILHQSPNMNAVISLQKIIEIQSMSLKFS

Regarding `CC1(C)CC(=O)c2c(C(F)(F)F)nn(Cc3ccc(C(=O)NO)cc3)c2C1`, the AUC(0-t) was 1140 ng·h/mL in data set [1]; 332 ng·h/mL in data set [3]; 299 ng·h/mL in [11]; 446 ng·h/mL in data set [17]; 1090 ng·h/mL in [19]; 1200 ng·h/mL in data set [29]. In addition, the Activity in the data set on Rattus norvegicus [2] is 97.9%; with Rattus norvegicus [24] it was 59.6%; in the data set with Mus musculus [30], 65%. In the data set with THP-1, the inhibition result is “Dose-Dependent Effect”. The Tmax came to 120 min in data set [4], 4.98 min in [25] and 24 min in data set [28]. In addition, the AUC(0-inf) was determined as 1210 ng·h/mL in [5], 339 ng·h/mL in data set [26] and 458 ng·h/mL in data set [27]. Besides, the inhibition result in [6] and in data set [32] was “inactive” throughout. In addition, the bioavailability in data set [7] came to 11.2%; in data set [20] it was 25.1%. Further, the half-life in [8] is 36 min; in data set [13] it was 18.6 min; in [16] it was 83.4 min; in [22], 57 min; in [23], 84 min. Further, in data set [9], the clearance is 18.8 mL/min/kg. Besides, the C0 in data set [10] came out at 4290 ng/mL; in [21], 2080 ng/mL. In addition, the Cmax in data set [12] was 137 ng/mL; in data set [31] it was 1030 ng/mL. Further, the AUC in [14] was 302 ng·h/mL. Also, the inhibition entry in [15] is “Active”. The result in the data set with Mus musculus [18] was Active. In addition, in data set [33], the CL was found to be 55.7 mL/min/kg.

On to `O=C(NO)c1ccc(Cn2c3c(c4ccccc42)C(=O)CCC3)cc1`, for which the results for the IC50 (in data set [34]; at Histone deacetylase 4; on Histone deacetylase 9) were 0.016 µM, above 20 µM and above 20 µM, respectively.

For orientation: AUC(0-t) means exposure summed from dosing to a finite time, without extrapolation to infinity. The term Tmax denotes the time at which the peak concentration occurs. The term AUC(0-inf) denotes the area under the concentration-time curve extrapolated to infinity. As a reminder, the bioavailability is the share of a dose that reaches the circulation, judged against a reference dose that is usually intravenous. As usually defined, the half-life is how long it takes for the measured level to halve. One may read the clearance as the volume of plasma or blood freed of the substance per unit of time. By Cmax is commonly meant the peak of the concentration-time curve. The term AUC denotes concentration integrated over time. Broadly, the IC50 is the concentration at which inhibition is half-maximal.
